Source: PMC5216056 (Nature Communications, 2017)
Read-outs that look alike come from different tables or passages of the source.

Columns and labels:
hCB2R [1] = target: T1, hCB2R (Homo sapiens, UniProt P34972); assay: cell-based; assay type: cell-based; conditions: for Emax: read-out: Emax ± SEM β-AR recruitment hCB2R
hCB2R [2] = target: T1, hCB2R; assay: biochemical; assay type: biochemical; set-up: expressed in transfected cells; host or cells: Flp-In-293 (Invitrogen #R750-07), pcDNA5/FRT; conditions: for Emax: read-out: Emax ± SEM GTPγS hCB2R
mCB2R = mCB2R (Mus musculus, UniProt P47936); assay: biochemical; assay type: biochemical; set-up: from tissue; host or cells: spleen of male C57BL/6J mice; conditions: for Emax: read-out: Emax cAMP mCB2R; for CB2R Selectivity cAMP (mouse): 10^(pEC50 CB2R-pEC50 CB1R)
Chain of mCB2R (P47936 whole entry): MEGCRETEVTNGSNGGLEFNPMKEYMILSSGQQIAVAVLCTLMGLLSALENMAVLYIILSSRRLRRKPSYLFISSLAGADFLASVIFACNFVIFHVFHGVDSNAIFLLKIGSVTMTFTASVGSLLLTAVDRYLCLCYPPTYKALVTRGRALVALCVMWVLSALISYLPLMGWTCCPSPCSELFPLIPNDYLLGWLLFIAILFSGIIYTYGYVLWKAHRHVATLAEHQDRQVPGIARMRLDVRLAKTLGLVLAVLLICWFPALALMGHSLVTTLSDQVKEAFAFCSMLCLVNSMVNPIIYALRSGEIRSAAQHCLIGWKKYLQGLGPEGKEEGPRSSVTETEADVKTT

[3] = for Pct donor / Pct membrane / Pct acceptor: PAMPA; for Pct membrane: compound found in membranes; for Pampa Peff: membrane permeation coefficient
human NAPE-PLD = target: T2, human NAPE-PLD (Homo sapiens, UniProt Q6IQ20); assay: NAPE-PLD inhibition; assay type: biochemical; conditions: for inhibition at 10 µM: read-out: NAPE-PLD % inhibition at 10 µM ± SD
T2 construct: Full length human cDNA NAPE-PLD was obtained from Natsuo Ueda; expressed in transfected cells; host or cells: HEK293T (transient), membrane fraction
T2 sequence (Q6IQ20 whole entry): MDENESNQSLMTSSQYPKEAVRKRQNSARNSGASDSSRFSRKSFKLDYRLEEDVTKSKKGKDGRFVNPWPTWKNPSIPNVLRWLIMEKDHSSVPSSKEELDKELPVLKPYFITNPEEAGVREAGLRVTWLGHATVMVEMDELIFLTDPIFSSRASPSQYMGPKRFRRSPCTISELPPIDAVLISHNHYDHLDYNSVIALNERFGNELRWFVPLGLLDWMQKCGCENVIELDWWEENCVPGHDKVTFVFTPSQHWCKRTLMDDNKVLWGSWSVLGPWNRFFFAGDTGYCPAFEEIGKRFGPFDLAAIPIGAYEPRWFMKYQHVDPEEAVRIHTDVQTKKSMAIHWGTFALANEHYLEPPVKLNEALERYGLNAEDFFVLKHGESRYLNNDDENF
Method: Full length human cDNA NAPE-PLD was obtained from Natsuo Ueda[58] and cloned into mammalian expression vector pcDNA3.1, containing a C-terminal Flag-tag and genes for ampicillin and neomycin resistance. All plasmids were grown in XL-10 Z-competent cells and prepped (Maxi Prep, Qiagen). Sequence analysis for the confirmation of the sequences was performed at the Leiden Genome Technology Centre.
HEK293T cells (source: Dutch Cancer Institute) were cultured at 37 °C and 7% CO2 in DMEM with glutamax, penicillin (100 μg ml^−1), streptomycin (100 μg ml^−1) and 10% New Born Calf Serum iron supplemented (Hyclone SH30072.03). Cells were passaged twice a week to appropriate confluence. Twenty-four hours before transfection 10^7 cells were seeded on a 15 cm dish. Two hours before transfection, the medium was refreshed. Transfection is performed with PEI in a ratio of 3:1 with human NAPE-PLD or Mock pcDNA3.1Neo, 20 μg per dish. Medium is refreshed after 24 h and cells are harvested after 72 h. Cell suspensions are centrifuged at 1,000g for 10 min, supernatant removed and pellets frozen at −80 °C until further use.
Cell pellets are re-suspended in lysis buffer 1: 20 mM Hepes, 2 mM DTT, 0.25 M sucrose, 1 mM MgCl2, 2.5 U ml^−1 benzonase and incubated 30 min on ice. The cytosolic fraction (supernatant) is separated from the membranes by ultra-centrifugation (32,000 rpm for 30 min 100,000g). The pellet is resuspended in buffer 2: 20 mM Hepes, 2 mM DTT (membrane fraction). All samples are stored at −80 °C. Enzyme concentrations are determined using a Bradford assay.
The membrane protein fraction from transient overexpression of NAPE-PLD in HEK293T cells was diluted to 0.4 mg ml^−1 in assay buffer: 50 mM Tris-HCl (pH 7.5), 0.02% Triton X-100, 150 mM NaCl (ref. [60]). […] Relevant concentrations of compounds are prepared in DMSO. The assay is performed in a dark Greiner 96-well plate, end volume 100 μl. The compound or DMSO is incubated with membrane protein lysate (final concentration 0.04 mg ml^−1) for 30 min at 37 °C. A sample without membrane protein lysate is incorporated for background subtraction. Then, substrate is added (final concentration 1 μM) and the measurement is started immediately on a TECAN infinite M1000 pro at 37 °C (excitation 485 nm, emission 535 nm), scanning every 2 min for 1 h.

GR (h) = target: T3, GR (h) (Homo sapiens, UniProt P04150); assay: CEREP panel; assay type: binding; conditions: for inhibition at 10 µM: read-out: % inhibition GR (h)
T3 construct: CEREP (contract assay)
T3 sequence (P04150 1-777): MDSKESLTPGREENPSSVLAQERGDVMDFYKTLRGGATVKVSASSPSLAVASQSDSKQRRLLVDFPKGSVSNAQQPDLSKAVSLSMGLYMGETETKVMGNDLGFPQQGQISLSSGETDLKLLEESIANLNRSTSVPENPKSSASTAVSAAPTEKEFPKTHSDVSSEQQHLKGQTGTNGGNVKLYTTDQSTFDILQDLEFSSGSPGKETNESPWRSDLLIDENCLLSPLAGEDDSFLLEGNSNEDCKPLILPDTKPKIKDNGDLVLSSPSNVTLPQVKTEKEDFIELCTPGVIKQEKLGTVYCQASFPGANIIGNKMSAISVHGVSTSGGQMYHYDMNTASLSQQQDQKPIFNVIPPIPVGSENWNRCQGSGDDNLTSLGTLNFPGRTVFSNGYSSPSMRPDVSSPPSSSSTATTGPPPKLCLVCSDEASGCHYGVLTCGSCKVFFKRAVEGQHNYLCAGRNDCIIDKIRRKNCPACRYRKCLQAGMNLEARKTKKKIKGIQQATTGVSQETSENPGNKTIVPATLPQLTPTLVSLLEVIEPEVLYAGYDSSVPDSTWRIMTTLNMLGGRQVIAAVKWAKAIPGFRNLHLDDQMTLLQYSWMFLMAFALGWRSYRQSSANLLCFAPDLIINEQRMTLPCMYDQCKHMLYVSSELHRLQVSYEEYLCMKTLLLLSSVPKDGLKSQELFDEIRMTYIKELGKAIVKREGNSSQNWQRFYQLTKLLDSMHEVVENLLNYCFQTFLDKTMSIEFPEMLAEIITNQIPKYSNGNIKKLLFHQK

[4] = mouse spleen, read-out: pEC50 ± SEM cAMP mCB2R (converted)
[5] = normalized to 10 µM CP55940, negative = inhibition of EC80 of CP55940
[6] = normalized to 10 µM CP55940, negative = inverse agonism

T1 sequence (P34972 whole entry): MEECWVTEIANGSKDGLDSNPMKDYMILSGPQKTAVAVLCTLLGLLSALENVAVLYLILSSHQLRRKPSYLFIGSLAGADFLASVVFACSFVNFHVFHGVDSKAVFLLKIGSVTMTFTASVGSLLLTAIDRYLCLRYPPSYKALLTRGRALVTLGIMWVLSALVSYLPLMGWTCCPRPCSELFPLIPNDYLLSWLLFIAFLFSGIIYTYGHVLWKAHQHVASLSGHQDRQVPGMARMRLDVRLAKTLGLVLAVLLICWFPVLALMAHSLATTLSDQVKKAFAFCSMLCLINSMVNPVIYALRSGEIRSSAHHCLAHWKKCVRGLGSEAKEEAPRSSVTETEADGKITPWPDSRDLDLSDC

| Compound | Emax ± SEM β-AR recruitment hCB2R (hCB2R [1]) | Emax ± SEM GTPγS hCB2R (hCB2R [2]) | pEC50 ± SEM cAMP mCB2R (mCB2R; mouse spleen) | Pct donor [3] | Pct membrane [3] | Pampa Peff [3] | NAPE-PLD % inhibition at 10 µM ± SD (human NAPE-PLD) | inhibition at 10 µM (human NAPE-PLD) | Pct acceptor [3] | % inhibition GR (h) (GR (h); 10 µM) | also measured |
| --- | --- | --- | --- | --- | --- | --- | --- | --- | --- | --- | --- |
| CN1CCCCC1Cn1cc(C(=O)c2cc([N+](=O)[O-])ccc2I)c2ccccc21 (racemic) [(rac)-AM1241] | 14 ± 2 | 56 ± 9 | 7.03 ± 0.26 | 41.3% | 55.7% | 1.86±0.62 cm/s*10-6 | 29 ± 11% | – | – | – | pEC50 ± SEM β-AR recruitment hCB2R (hCB2R [1]): < 5; hCB2R Selectivity GTPγS (hCB2R [2]): 0.03; pEC50 ± SEM GTPγS hCB2R (hCB2R [2]): 6.89 ± 0.66; Emax cAMP mCB2R (mCB2R): -6 |
| CCCCC/C=C\C/C=C\C/C=C\C/C=C\CCCC(=O)OC(CO)CO [2-AG, 2-arachidonoyl glycerol] | – | – | – | – | – | – | – | -1 ± 12% | – | – | EC50 (hCB2R [1]): 2000 nM; Emax (hCB2R [1]): 80 ± 21%; Emax (hCB2R [2]): 57 ± 11%; EC50 (hCB2R [2]; read-out: pEC50 ± SEM GTPγS hCB2R (converted)): 646 nM; EC50 (mCB2R; [4]): 70.8 nM; Emax (mCB2R): 53% |
| CN1CCCC[C@@H]1Cn1cc(C(=O)c2cc([N+](=O)[O-])ccc2I)c2ccccc21 [(R)-AM1241] | 29 ± 4 | 33 ± 2 | 6.17 ± 0.23 | 38.3% | 59.7% | 1.22 cm/s*10-6 | 21 ± 5% | – | 2.1% | – | pEC50 ± SEM β-AR recruitment hCB2R (hCB2R [1]): 7.52 ± 0.43; CB2R Selectivity β-AR recruitment (hCB2R [1]; 10^(pEC50 CB2R-pEC50 CB1R)): 86 fold; pEC50 ± SEM GTPγS hCB2R (hCB2R [2]): 7.40 ± 0.50; hCB2R Selectivity GTPγS (hCB2R [2]; 10^(pEC50 CB2R-pEC50 CB1R)): 4 fold; Emax cAMP mCB2R (mCB2R): -22; CB2R Selectivity cAMP (mouse) (mCB2R): 12 fold |
| CN1CCCC[C@H]1Cn1cc(C(=O)c2cc([N+](=O)[O-])ccc2I)c2ccccc21 [(S)-AM1241] | 29 ± 8 | 47 ± 5 | 7.6 ± 0.3 | 34% | 64% | 1.41 cm/s*10-6 | 33 ± 7% | – | 2.2% | 10% | pEC50 ± SEM β-AR recruitment hCB2R (hCB2R [1]): 6.54 ± 0.44; Emax cAMP mCB2R (mCB2R): 35; CB2R Selectivity cAMP (mouse) (mCB2R): 148 fold |
| Cc1c(C(=O)NN2CCCCC2)nn(-c2ccc(Cl)cc2Cl)c1-c1ccc(I)cc1 [AM251] | -104 ± 8 | -29 ± 2 | – | – | – | – | 10 ± 12% | – | – | 84% | – |
| COc1ccc(C(=O)c2c(C)n(CCN3CCOCC3)c3cc(I)ccc23)cc1 [AM630] | -124 ± 6 | -22 ± 2 | 7.93 ± 0.3 | 35.4% | 64.3% | 0.2 cm/s*10-6 | -4 ± 11% | – | 0.37% | 38% | pEC50 ± SEM β-AR recruitment hCB2R (hCB2R [1]): 6.15 ± 0.08; pEC50 ± SEM GTPγS hCB2R (hCB2R [2]): 6.75 ± 0.20; Emax cAMP mCB2R (mCB2R): -65 |
| CCCCC/C=C\C/C=C\C/C=C\C/C=C\CCCC(=O)NCCO [Anandamide, N-arachidonoylethanolamine] | – | – | – | 96.3% | 2.7% | 0.26 cm/s*10-6 | – | 17 ± 9% | 1.2% | – | Emax (hCB2R [1]): 38 ± 3%; Emax (hCB2R [2]): 31 ± 4%; EC50 (mCB2R): 151 nM; Emax (mCB2R): 48% |
| CCCCCCC(C)(C)c1ccc([C@@H]2C[C@H](O)CC[C@H]2CCCO)c(O)c1 [CP55940] | – | – | – | – | – | 0 cm/s*10-6 | – | 10 ± 8% | – | 94% | Emax (hCB2R [1]): 80 ± 5%; inhibition at 10 µM (GR (h); 10 µM): 92%; Emax (hCB2R [2]): 95 ± 4%; EC50 (mCB2R; [4]): 0.0676 nM; Emax (mCB2R): 100% |
| Cc1ccc2c(c1)Cc1c(C(=O)NN3CCCCC3)nn(-c3ccc(Cl)cc3Cl)c1-2 [Gp-1a] | – | – | 7.25 ± 0.32 | 29.7% | 70.3% | 0 cm/s*10-6 | 3 ± 5% | – | 0% | 71% | pEC50 ± SEM β-AR recruitment hCB2R (hCB2R [1]; antagonists in presence of EC80 of CP55940): 5.86 ± 0.16; Emax ± SEM β-AR recruitment hCB2R (hCB2R [1]; [5]): -147 ± 11%; pEC50 ± SEM GTPγS hCB2R (hCB2R [2]): 7.09 ± 0.07; Emax ± SEM GTPγS hCB2R (hCB2R [2]; [6]): -14 ± 5%; CB2R Selectivity cAMP (mouse) (mCB2R): 25 fold; Emax cAMP mCB2R (mCB2R; normalized to 10 µM CP55940): -25% |
| CCCCCCC(C)(C)c1cc(OC)c([C@@H]2C=C(CO)[C@@H]3C[C@H]2C3(C)C)c(OC)c1 [HU308] | – | – | – | 23.1% | 74.3% | 2.53 cm/s*10-6 | – | 2 ± 7% | 2.8% | – | Emax (hCB2R [1]): 57 ± 10%; inhibition at 10 µM (GR (h)): 4%; Emax (hCB2R [2]): 97 ± 12%; EC50 (mCB2R): 3.72 nM; Emax (mCB2R): 56% |
| CCCn1c(C)c(C(=O)c2cccc3ccccc23)c2ccccc21 [JWH015] | – | – | 7.64 ± 0.24 | – | – | – | -4 ± 12% | – | – | 36% | Emax cAMP mCB2R (mCB2R; normalized to 10 µM CP55940): 93% |
| Cc1c(C(=O)NN2CCCCC2)nn(-c2ccc(Cl)cc2Cl)c1-c1ccc(Cl)cc1 [SR141716A] | – | – | – | 25.2% | 74.3% | 0.27±0.11 cm/s*10-6 | – | 0% | 0.3% | – | inhibition at 10 µM (GR (h); 10 µM): 43% |
| Cc1c(C(=O)c2cccc3ccccc23)c2cccc3c2n1[C@H](CN1CCOCC1)CO3 [WIN55212-2] | – | – | 8.37 ± 0.23 | 50.6% | 49% | 0.25±0.22 cm/s*10-6 | 8 ± 6% | – | 0.5% | 63% | Emax cAMP mCB2R (mCB2R; normalized to 10 µM CP55940): 97% |
| SR144528 | – | – | – | – | – | – | 8 ± 10% | – | – | 9% | Emax ± SEM β-AR recruitment hCB2R (hCB2R [1]; [5]): -111 ± 3%; Emax ± SEM GTPγS hCB2R (hCB2R [2]; [6]): -29 ± 2%; Emax cAMP mCB2R (mCB2R; normalized to 10 µM CP55940): -100% |
